{"source": "BindingDB's records for patent US9260439", "about": "(Pfizer, 2016)"}
{"biological_target": "Phosphatidylinositol 3-kinase regulatory subunit alpha [Q431L,Q432E,D433V,Q434L,V435F,V436Q,K437G,E438P]/4,5-bisphosphate 3-kinase catalytic subunit alpha isoform (Homo sapiens, UniProt P42336)", "assay": "Biochemical Assay", "text": "PI3KA_Act: Genes encoding for full length p110alpha and p85alpha nSH-iSH2=niSH2 (p85a aminoacids 322-600) subunits of PI3Kalpha complex were subcloned from existing constructs into pFASTBAC Dual vector (Life Technologies, Carlsbad, Calif.) using standard cloning procedures. Gene encoding p110alpha subunit was subcloned into polyhedrine promoter while gene encoding p85alpha niSH2 domains was subcloned into p10 promoter. Additionally, Human Rhinovirus 3C Protease (HRV 3C) site was introduced between nSH2 and iSH2, replacing aminoacids 431-438 of p85alpha with […] HRV 3C recognition sequence, using standard QuickChange mutagenesis protocol (Agilent Technologies, CA). Recombinant baculovirus was generated using Bac-to-Bac protocol (Life Technologies, Carlsbad, Calif.). The biochemical assays of kinase activity of full-length PI3Kalpha (full-length p110alpha/p85a) or truncated PI3Kalpha (p110alpha/iSH2 p85a) were conducted using a fluorescence polarization format similar to the procedure of Yuan J., et al., (2011) \"PF-04691502, a Potent and Selective Oral Inhibitor of PI3K and mTOR Kinases with Antitumor Activity, Mol Cancer Ther. 10, 2189-2199.", "units": {"Ki": "nM"}}
{"smiles": "C[C@]1(N2CCc3c(-c4cnc(N)nc4)nc(N4CCOCC4)nc32)CCN(C(=O)C2(F)CC2)C1", "note": "[US9260439, 331]", "Ki": "< 0.018"}
{"smiles": "CC(C)(CO)C(=O)N1CC[C@](C)(N2CCc3c(-c4cnc(N)nc4)nc(N4CCOCC4)nc32)C1", "note": "[US9260439, 277]", "Ki": 0.034}
{"smiles": "C[C@]1(N2CCc3c(-c4cnc(N)nc4)nc(N4CCOCC4)nc32)CCN(C(=O)C2(CO)CC2)C1", "note": "[US9260439, 339]", "Ki": 0.08}
{"smiles": "C[C@]1(N2CCc3c(-c4cnc(N)nc4)nc(N4CCOCC4)nc32)CCN(C(=O)C2(O)CC2)C1", "note": "[US9260439, 338]", "Ki": 0.071}
{"smiles": "CC(=O)NCC(=O)N1CC(N2CCc3c(-c4cnc(N)nc4)nc(N4CCOC[C@@H]4C)nc32)C1", "note": "[US9260439, 201]", "Ki": 1.4}
